Results from publication PMC6657668, “Porcine Beta-Defensin 2 Provides Protection Against Bacterial Infection by a Direct Bactericidal Activity and Alleviates Inflammation via Interference With the TLR4/NF-κB Pathway” (Frontiers in Immunology, 2019).
Where a SMILES comes first, the peptide text is derived from it.

How the values were obtained:
[1] = tested on: JNK; assay: Western blot of JNK and p-JNK in RAW 264.7 cells; format: cell-based, mouse; settings: LPS 30 min with various concentrations of PBD-2 (Figure S4)
Method: (§1) RAW 264.7 cells were treated with LPS (1 μg/ml) alone or together with PBD-2 (10 μg/mL). […] Proteins were firstly analyzed with SDS-PAGE and then electro-transferred onto a PVDF (#ISEQ00010, Biosharp®, Beijing, China) membrane. The PVDF membrane was blocked with 1/100 bovine serum albumin (BSA, #V900933-100G, VETEC, Sigma-Aldrich®, St. Louis, MO, USA) at 10 μg/ml at 37°C for 2 h, washed with PBST five times, incubated with the antisera against p-p65 (# 3033), p65 (# 4764), p-ERK (# 4370), ERK (# 4695), p-p38 (# 4511), p38 (# 8690), p-JNK (# 4668), JNK (# 9258) (Cell Signaling Technology®, Danvers, MA, USA), and β-actin (# AA128, Beyotime®, Shanghai, China) at 2 μg/ml at 37°C for 2 h and washed five times again. The PVDF membrane was subsequently incubated with 1 μg/ml secondary antibody, namely, goat anti-rabbit IgG (# 7074S, Cell Signaling Technology®, Danvers, MA, USA), at 37°C for 2 h and washed five times. Lastly, immune-reactive bands were detected using an ECF Western blot system (Tanon 5200 Multi, Shanghai, China) and quantified using AlphaImager 2200 analysis software.
Supplementary file Image_4.TIF: Figure S4 Effects of PBD-2 on ERK, p38, and JNK signaling pathways. Cells were treated with LPS for 30 min with or without various concentrations of PBD-2. […] The signal intensity of each band was quantified (B–D). […]

[2] = PBD-2 expressed in TG mice, uninfected, n ≥ 6, vs WT
Method: After the mice were euthanized, blood samples of TG and WT mice were collected. Alanine aminotransferase, aspartate aminotransferase, albumin, globin, albumin/globin, total bilirubin, direct bilirubin, urea, creatinine, urea/creatinine, glucose, potassium, and sodium were analyzed using a blood routine analyser (Mindray, Shenzhen China). Their heart, liver, spleen, lung, kidney, brain and intestinal segments were harvested. The histological morphologies of the mice organs and the body and organ weights of male and female mice were characterized.
(B) Comparison of body weights between TG and WT mice. (C) Comparison of weight ratios of organs, including heart, liver, spleen, lung, kidney, and brain (organ weight/body weight) between TG and WT mice. Data are represented as means ± SD (WT, n ≥ 6; TG, n ≥ 6).

[3] = tested on: LPS-induced production of cytokines; assay: Serum cytokine levels of mice injected with LPS (ELISA); format: in vivo, mouse; settings: 1 h, n = 6
Method: Six TG mice and six WT mice were separately injected with LPS (16 mg/kg body weight) intraperitoneally. The same number of TG mice and WT mice was injected with 100 μl of sterile PBS as a negative control. The sera from the mice in each group were collected 1 h after the injection to detect cytokines by ELISA.
The WT mice were injected with LPS alone or LPS with PBD-2 (0.5 mg/kg body weight) intraperitoneally (n = 6 each group) to detect the effect of synthetic PBD-2 on inflammation induced by LPS. The sera from the mice in each group were collected 1 h after the injection to detect the cytokines by ELISA.

[4] = transgenic expression; ref [24]; cited from earlier work
[5] = tested on: ERK; assay: Western blot of ERK and p-ERK in RAW 264.7 cells; format: cell-based, mouse; settings: LPS 30 min with various concentrations of PBD-2 (Figure S4)
Method: as §1, with “RAW 264.7 cells were treated with LPS (1 μg/ml) alone or together with PBD-2 (10 μg/mL).” left out
Supplementary file Image_4.TIF: Figure S4 Effects of PBD-2 on ERK, p38, and JNK signaling pathways. Cells were treated with LPS for 30 min with or without various concentrations of PBD-2. The expression levels of ERK, p-ERK, p38, p-p38, JNK, p-JNK, and β-actin were examined by Western blot (A). The signal intensity of each band was quantified (B–D). Click here for additional data file.

[6] = design: method as in 2 sources, one per row (each row's own in cited_ref): ref [13] = [13]; PMID 27383796; doi:10.5713/ajas.16.0207; 13. Xu J Zhong F Zhang Y Zhang J Huo S Lin H . Construction of Bacillus subtilis strain engineered for expression of porcine beta-defensin-2/cecropin P1 fusion antimicrobial peptides and its growth-pr ||| ref [15] = [15]; PMID 26707031; doi:10.1111/asj.12540; 15. Tang Z Xu L Shi B Deng H Lai X Liu J . Oral administration of synthetic porcine beta-defensin-2 improves growth performance and cecal microbial flora and down-regulates the expression of intestina; settings: cited from earlier work
[7] = tested on: S. Typhimurium; assay: Body weight loss of mice infected with S. Typhimurium; settings: PBD-2 expressed in TG mice; oral 2.5 × 10^8 CFU; days 1-5; n = 7; vs WT
Method: Four infection experiments were conducted to determine the resistance to S. Typhimurium of the TG mice. For body weight measurements, 7 WT and 7 TG mice were orally administered with 2.5 × 10^8 CFU of S. Typhimurium, and the body weight of each mouse was measured on days 1, 2, 3, 4, and 5 after infection. For the detection of the tissue weight ratios, bacterial loads in tissues and tissue lesions after S. Typhimurium infection, 9 WT and 8 TG mice were orally administered with 2.5 × 10^8 CFU of S. Typhimurium. The spleen, caecum and body weights of the mice were weighed at 24 h post-infection. The bacterial loads in the tissues were also measured ([26]). The spleen and caecum were weighed and homogenized in cold PBS at a ratio of 4 ml per gram of tissue and coated plates. The bacterial numbers in the homogenates were counted by serially diluting the homogenates and spreading on plates. Caeca were harvested for histopathological analysis by using the methods described above. The intestinal damage, including epithelial damage, submucosal oedema, and neutrophil aggregation, was observed.

[8] = format: biochemical, Escherichia coli O55:B5; settings: PBD-2 1, 5, and 10 μg/ml mixed with LPS, 37°C, 10 min; n = 6
[9] = tested on: dextran sodium sulfate (DSS) in mice; settings: ref [33], cited from earlier work
From the text: The antibiotic resistance of pathogenic bacteria has become a global threat ([30]). Defensins are natural peptides secreted by many species and implicated in resisting bacterial infection ([31]). PBD-2 is one of the defensins expressed in pigs. […] The invasion of S. Typhimurium can increase the expression of PBD-2 in porcine epithelial cells ([32]). […] PBD-2 also improves the growth perf ... || The colitis caused by S. Typhimurium mainly results from intestinal mucosal inflammation after the breakage of intestinal epithelial barrier by pathogens ([26]). […] AMPs have various structures which may lead to their different act ...

[10] = PBD-2 expressed in TG mice, LPS 16 mg/kg i.p., vs WT
[11] = synthetic PBD-2 0.5 mg/kg i.p. with LPS 16 mg/kg, WT mice, vs LPS alone

## CC[C@H](C)[C@H](NC(=O)[C@@H]1CSSC[C@@H]2NC(=O)[C@@H]3CCCN3C(=O)[C@H](CO)NC(=O)[C@H](Cc3ccccc3)NC(=O)[C@H](CC(N)=O)NC(=O)[C@@H]3CSSC[C@H](NC(=O)[C@H]([C@@H](C)O)NC(=O)CNC(=O)[C@H](CCC(=O)O)NC(=O)[C@H]([C@@H](C)CC)NC(=O)[C@H](CCCNC(=N)N)NC(=O)[C@H](CC(N)=O)NC(=O)[C@H](Cc4ccccc4)NC(=O)[C@H](CC(C)C)NC(=O)[C@@H]4CCCN4C2=O)C(=O)N[C@@H](Cc2ccc(O)cc2)C(=O)N[C@@H](CO)C(=O)NCC(=O)N[C@@H](CCCCN)C(=O)N[C@@H](C)C(=O)N[C@@H](CCCCN)C(=O)N[C@@H](CSSC[C@H](NC(=O)[C@@H](NC(=O)[C@H](Cc2ccc(O)cc2)NC(=O)[C@H](Cc2c[nH]cn2)NC(=O)[C@@H](N)CC(=O)O)[C@@H](C)CC)C(=O)N[C@@H](C)C(=O)N[C@@H](CCCCN)C(=O)N[C@@H](CCCCN)C(=O)NCC(=O)NCC(=O)N[C@@H]([C@@H](C)O)C(=O)N3)C(=O)N1)C(=O)N[C@@H](CCCNC(=N)N)C(=O)O [PBD-2, Porcine beta-defensin 2] (HELM PEPTIDE1{D.H.Y.I.C.A.K.K.G.G.T.C.N.F.S.P.C.P.L.F.N.R.I.E.G.T.C.Y.S.G.K.A.K.C.C.I.R}$PEPTIDE1,PEPTIDE1,5:R3-34:R3|PEPTIDE1,PEPTIDE1,12:R3-27:R3|PEPTIDE1,PEPTIDE1,17:R3-35:R3$$$V2.0; N-terminus and C-terminus assumed)
[1]
  LPS-induced phosphorylation of JNK: did not affect the LPS-induced phosphorylation of ERK, p38, and JNK
[2]; heart, liver, spleen, lung, kidney, brain
  ratio of organ weight to total body weight: did not significantly differ from the WT mice in terms of body weight (Figure S1B) and the ratio of organ weight to total body weight
[2]
  body weight: did not significantly differ from the WT mice in terms of body weight
[3]; [10]
  LPS-induced IL-1β in serum: significantly lower in the TG mice than in the WT mice (p < 0.05)
  LPS-induced IL-6 in serum: significantly lower in the TG mice than in the WT mice (p < 0.05)
  LPS-induced IL-12 in serum: significantly lower in the TG mice than in the WT mice (p < 0.05)
  LPS-induced TNF-α in serum: significantly lower in the TG mice than in the WT mice (p < 0.05)
[3]; [11]
  LPS-induced IL-1β in serum: significantly lower levels of secreted TNF-α, IL-6, IL-1β, and IL-12 than those injected with LPS alone (p < 0.05)
  LPS-induced IL-6 in serum: significantly lower levels of secreted TNF-α, IL-6, IL-1β, and IL-12 than those injected with LPS alone (p < 0.05)
  LPS-induced IL-12 in serum: significantly lower levels of secreted TNF-α, IL-6, IL-1β, and IL-12 than those injected with LPS alone (p < 0.05)
  LPS-induced TNF-α in serum: significantly lower levels of secreted TNF-α, IL-6, IL-1β, and IL-12 than those injected with LPS alone (p < 0.05)
[4]
  expression level of PBD-2 in the TG mice: ≤ 10^4 ng/g tissue
[5]
  LPS-induced phosphorylation of ERK: did not affect the LPS-induced phosphorylation of ERK, p38, and JNK
[6]; oral administration, pigs, ref [15]
  growth performance, caecum microbial flora, inflammatory cytokine expression: improve growth performance and caecum microbial flora and reduce the expression of inflammatory cytokines in pigs
[6]; ref [13]
  growth and diarrhea in piglets: promote growth, alleviate diarrhea in piglets
[7]
  body weight loss: less degree of body weight loss from day 2 onwards (p < 0.05)
[8]
  endotoxic activity of LPS: did not affect the endotoxic activity of LPS
[9]; mice
  mucosal damage caused by DSS: alleviate mucosal damage caused by dextran sodium sulfate (DSS) in mice
[9]
  DSS-induced inflammation, NF-κB signaling: suppresses the DSS-induced inflammation by suppressing the NF-κB signaling pathway
  inflammation in DSS-induced colitis: attenuates inflammation in DSS-induced colitis
